Measurements: ChEMBL document CHEMBL4017472, “New modified 2-aminobenzimidazole nucleosides: Synthesis and evaluation of their activity against herpes simplex virus type 1” (Bioorg Med Chem Lett, 2017)

Tests used:
[1] = Cytotoxicity against African green monkey Vero E6 cells measured after 3 days by trypan blue assay; assay type: cell-based, Vero C1008; conditions: chlorocebus sabaeus
Human alphaherpesvirus 1 [2] = test: Antiviral activity against acyclovir-resistant HSV-1 L2 infected in African green monkey Vero E6 cells assessed as reduction in virus-induced cytopathic effect; assay type: functional; conditions: Human alphaherpesvirus 1, L2, Vero C1008
Human alphaherpesvirus 1 [3] = test: Antiviral activity against acyclovir and foscarnet-resistant HSV-1 L2 infected in African green monkey Vero E6 cells assessed as inhibition of viral reproduction measured after 48 hrs post infection by gentian violet staining based plaque reduction assay; assay type: functional; conditions: Vero C1008
Human alphaherpesvirus 1 [4] = test: Antiviral activity against acyclovir-resistant HSV-1 L2 infected in African green monkey Vero E6 cells assessed as inhibition of viral reproduction measured after 48 hrs post infection by gentian violet staining based plaque reduction assay; assay type: functional; conditions: Vero C1008
Human alphaherpesvirus 1 [5] = test: Antiviral activity against acyclovir and foscarnet-resistant HSV-1 L2 infected in African green monkey Vero E6 cells assessed as viral reproduction at 207 uM measured after 48 hrs post infection by gentian violet staining based plaque reduction assay (reference value: 5.92 +/- 0.11 log10PFU/ml); assay type: functional, Vero C1008
Human alphaherpesvirus 1 [6] = test: Antiviral activity against HSV-1 L2 infected in African green monkey Vero E6 cells assessed as viral reproduction at 104 uM measured after 48 hrs post infection by gentian violet staining based plaque reduction assay (reference value: 6.91 +/- 0.05 log10PFU/ml); assay type: functional, Vero C1008
Human alphaherpesvirus 1 [7] = test: Potency index, ratio of ribavirin IC50 to compound IC50 for HSV-1 L2 infected in African green monkey Vero E6 cells; assay type: functional, Vero C1008
Human alphaherpesvirus 1 [8] = test: Antiviral activity against acyclovir and foscarnet-resistant HSV-1 L2 infected in African green monkey Vero E6 cells assessed as viral reproduction at 52 uM measured after 48 hrs post infection by gentian violet staining based plaque reduction assay (reference value: 5.92 +/- 0.11 log10PFU/ml); assay type: functional, Vero C1008
Human alphaherpesvirus 1 [9] = test: Antiviral activity against HSV-1 L2/Rp-ACV/2 infected in African green monkey Vero E6 cells assessed as reduction in virus-induced cytopathic effect; assay type: functional; conditions: Human alphaherpesvirus 1, L2/Rp-ACV/2, Vero C1008
Human alphaherpesvirus 1 [10] = test: Antiviral activity against HSV-1 L2/Rp-ACV/2 infected in African green monkey Vero E6 cells assessed as inhibition of viral reproduction measured after 48 hrs post infection by gentian violet staining based plaque reduction assay; assay type: functional; conditions: Vero C1008
Human alphaherpesvirus 1 [11] = test: Antiviral activity against HSV-1 L2/Rp-ACV/2 infected in African green monkey Vero E6 cells assessed as viral reproduction at 415 uM measured after 48 hrs post infection by gentian violet staining based plaque reduction assay (reference value: 6.05 +/- 0.1 log10PFU/ml); assay type: functional, Vero C1008
Human alphaherpesvirus 1 [12] = test: Antiviral activity against HSV-1 L2/Rp-ACV/2 infected in African green monkey Vero E6 cells assessed as viral reproduction at 52 uM measured after 48 hrs post infection by gentian violet staining based plaque reduction assay (reference value: 6.05 +/- 0.1 log10PFU/ml); assay type: functional, Vero C1008
Human alphaherpesvirus 1 [13] = test: Antiviral activity against HSV-1 L2/Rp-ACV/2 infected in African green monkey Vero E6 cells assessed as viral reproduction at 207 uM measured after 48 hrs post infection by gentian violet staining based plaque reduction assay (reference value: 6.05 +/- 0.1 log10PFU/ml); assay type: functional, Vero C1008
Human alphaherpesvirus 1 [14] = test: Antiviral activity against HSV1 L2 infected in African green monkey Vero E6 cells assessed as reduction in virus-induced cytopathic effect; assay type: functional; conditions: Human alphaherpesvirus 1, L2, Vero C1008
Human alphaherpesvirus 1 [15] = test: Antiviral activity against acyclovir and foscarnet-resistant HSV-1 L2 infected in African green monkey Vero E6 cells assessed as viral reproduction at 104 uM measured after 48 hrs post infection by gentian violet staining based plaque reduction assay (reference value: 5.92 +/- 0.11 log10PFU/ml); assay type: functional, Vero C1008
Human alphaherpesvirus 1 [16] = test: Antiviral activity against acyclovir and cidofovir-resistant HSV-1 L2 infected in African green monkey Vero E6 cells assessed as reduction in virus-induced cytopathic effect; assay type: functional; conditions: Human alphaherpesvirus 1, L2, Vero C1008
[17] = Selectivity index, ratio of MCC for African green monkey Vero E6 cells to IC50 for HSV-1 L2 infected in African green monkey Vero E6 cells; set-up: species or system Vero C1008
[18] = Selectivity index, ratio of MCC for African green monkey Vero E6 cells to IC50 for HSV-1 L2/Rp-ACV/2 infected in African green monkey Vero E6 cells; set-up: species or system Vero C1008
Human alphaherpesvirus 1 [19] = test: Antiviral activity against HSV-1 L2 infected in African green monkey Vero E6 cells assessed as viral reproduction at 207 uM measured after 48 hrs post infection by gentian violet staining based plaque reduction assay (reference value: 6.91 +/- 0.05 log10PFU/ml); assay type: functional, Vero C1008
Human alphaherpesvirus 1 [20] = test: Antiviral activity against acyclovir and cidofovir-resistant HSV-1 L2 infected in African green monkey Vero E6 cells assessed as viral reproduction at 104 uM measured after 48 hrs post infection by gentian violet staining based plaque reduction assay (reference value: 6.52 +/- 0.11 log10PFU/ml); assay type: functional, Vero C1008
Human alphaherpesvirus 1 [21] = test: Antiviral activity against HSV-1 L2/Rp-ACV/2 infected in African green monkey Vero E6 cells assessed as viral reproduction at 104 uM measured after 48 hrs post infection by gentian violet staining based plaque reduction assay (reference value: 6.05 +/- 0.1 log10PFU/ml); assay type: functional, Vero C1008
Human alphaherpesvirus 1 [22] = test: Antiviral activity against acyclovir-resistant HSV-1 L2 infected in African green monkey Vero E6 cells assessed as viral reproduction at 104 uM measured after 48 hrs post infection by gentian violet staining based plaque reduction assay (reference value: 5.95 +/- 0.03 log10PFU/ml); assay type: functional, Vero C1008
Human alphaherpesvirus 1 [23] = test: Antiviral activity against acyclovir-resistant HSV-1 L2 infected in African green monkey Vero E6 cells assessed as viral reproduction at 415 uM measured after 48 hrs post infection by gentian violet staining based plaque reduction assay (reference value: 5.95 +/- 0.03 log10PFU/ml); assay type: functional, Vero C1008
Human alphaherpesvirus 1 [24] = test: Antiviral activity against HSV-1 L2 infected in African green monkey Vero E6 cells assessed as viral reproduction at 52 uM measured after 48 hrs post infection by gentian violet staining based plaque reduction assay (reference value: 6.91 +/- 0.05 log10PFU/ml); assay type: functional, Vero C1008
Human alphaherpesvirus 1 [25] = test: Antiviral activity against foscarnet-resistant HSV-1 F+ infected in African green monkey Vero E6 cells assessed as inhibition of viral reproduction measured after 48 hrs post infection by gentian violet staining based plaque reduction assay; assay type: functional; conditions: Vero C1008
Human alphaherpesvirus 1 [26] = test: Antiviral activity against acyclovir and foscarnet-resistant HSV-1 L2 infected in African green monkey Vero E6 cells assessed as reduction in virus-induced cytopathic effect; assay type: functional; conditions: Human alphaherpesvirus 1, L2, Vero C1008
Human alphaherpesvirus 1 [27] = test: Antiviral activity against foscarnet-resistant HSV-1 F+ infected in African green monkey Vero E6 cells assessed as viral reproduction at 207 uM measured after 48 hrs post infection by gentian violet staining based plaque reduction assay (reference value: 6.6 +/- 0.1 log10PFU/ml); assay type: functional, Vero C1008
Human alphaherpesvirus 1 [28] = test: Antiviral activity against acyclovir and cidofovir-resistant HSV-1 L2 infected in African green monkey Vero E6 cells assessed as inhibition of viral reproduction measured after 48 hrs post infection by gentian violet staining based plaque reduction assay; assay type: functional; conditions: Vero C1008
Human alphaherpesvirus 1 [29] = test: Potency index, ratio of maribavir IC50 to compound IC50 for HSV-1 L2 infected in African green monkey Vero E6 cells; assay type: functional, Vero C1008

For `Nc1nc2cc(F)c(F)cc2n1[C@@H]1O[C@H](CO)[C@@H](O)[C@H]1O`, the MCC at 72 h [1] was greater than 3.32 mM, the IC50 (Human alphaherpesvirus 1 [2]) was 104 µM and the IC95 (Human alphaherpesvirus 1 [2]) was 830 µM. The inhibition (Human alphaherpesvirus 1 [3]) was “Dose-dependent effect”, the inhibition (Human alphaherpesvirus 1 [4]) was “Dose-dependent effect” and the Activity (Human alphaherpesvirus 1 [5]) was 4.47 log10PFU/ml. The Activity (Human alphaherpesvirus 1 [6]) was 5.63 log10PFU/ml, the “Ratio IC50” value (Human alphaherpesvirus 1 [7]) was 4 and the Activity (Human alphaherpesvirus 1 [8]) was 5.4 log10PFU/ml. For the same molecule, the IC50 (Human alphaherpesvirus 1 [9]) was 104 µM, the IC95 (Human alphaherpesvirus 1 [9]) was 830 µM and the inhibition (Human alphaherpesvirus 1 [10]) was “Dose-dependent effect”. It also gave an Activity (Human alphaherpesvirus 1 [11]) of 4.06 log10PFU/ml, an Activity (Human alphaherpesvirus 1 [12]) of 5.32 log10PFU/ml and an Activity (Human alphaherpesvirus 1 [13]) of 4.55 log10PFU/ml. It also gave an IC50 (Human alphaherpesvirus 1 [14]) of 104 µM, an IC95 (Human alphaherpesvirus 1 [14]) of 830 µM and an Activity (Human alphaherpesvirus 1 [15]) of 4.8 log10PFU/ml. For the same molecule, the IC50 (Human alphaherpesvirus 1 [16]) was 208 µM, the IC95 (Human alphaherpesvirus 1 [16]) was 830 µM and the “Selectivity Index” value [17] was greater than 32. The “Selectivity Index” value [18] was greater than 32, the Activity (Human alphaherpesvirus 1 [19]) was 5.16 log10PFU/ml and the Activity (Human alphaherpesvirus 1 [20]) was 5.39 log10PFU/ml. It also gave an Activity (Human alphaherpesvirus 1 [21]) of 4.76 log10PFU/ml, an Activity (Human alphaherpesvirus 1 [22]) of 4.44 log10PFU/ml and an Activity (Human alphaherpesvirus 1 [23]) of 3.45 log10PFU/ml. For the same molecule, the Activity (Human alphaherpesvirus 1 [24]) was 6.11 log10PFU/ml, the inhibition (Human alphaherpesvirus 1 [25]) was “Dose-dependent effect” and the IC50 (Human alphaherpesvirus 1 [26]) was 208 µM. For the same molecule, the IC95 (Human alphaherpesvirus 1 [26]) was 830 µM, the Activity (Human alphaherpesvirus 1 [27]) was 4.87 log10PFU/ml and the inhibition (Human alphaherpesvirus 1 [28]) was “Dose-dependent effect”. For the same molecule, the “Ratio IC50” value (Human alphaherpesvirus 1 [29]) was 8.
